Experimental data taken from PMC9161616, “A first-in-human phase 1/2 study of FGF401 and combination of FGF401 with spartalizumab in patients with hepatocellular carcinoma or biomarker-selected solid tumors” (Journal of Experimental & Clinical Cancer Research : CR, 2022).

Key:
[1] = tested on: patients with HCC or other solid tumors positive for FGFR4 and KLB; test: Phase 1 dose escalation, DLTs, MTD/RP2D, FGF401 single agent; type: in vivo
Experimental: Phase 1: Escalation with overdose control (EWOC) principle based on the observed dose-limiting toxicities (DLTs) was employed while escalating dosage starting with 50 mg until the lowest of MTD and/or RP2D was met. Sample size to have reasonable operating characteristics was estimated to be a minimum of 21 evaluable patients.
To further assess the effect of food uptake on FGF401, additional patients were recruited upon observance of clinical activity to receive doses under fed condition, in parallel with the fasted dose escalation. The starting dose was estimated at 80 mg qd. Principles of dose escalation aligned with those under fasted condition.
The primary endpoint for the phase 1 parts was the incidence of DLTs evaluated. The probability of DLTs during the evaluation period was estimated for patients in the dose determining set (DDS) for each treatment arm, FGF401 single agent and FGF401 + spartalizumab combination, to estimate respective MTDs. DDS for the phase 1 single agent or combination comprised safety set patients who either experienced a DLT or had confirmation by both the sponsor and investigators that no DLT occurred during the first cycle, C1 (first 2 cycles: C1, C2) based on at least 66% of planned doses administered in C1 (C1 and C2) with a minimum of 21 (42) days of observation following the first dose. For phase 2, the primary efficacy endpoint to investigate the antitumor activity of FGF401 included time to tumor progression assessed in groups 1 and 2, and overall response rate (ORR) in group 3 based on local assessment per Response Evaluation Criteria in Solid Tumors (RECIST) v1.1.
For the single-agent phase 1 primary outcome, an extended Bayesian hierarchical logistical regression model (BHLRM) was applied to estimate the relationship between dose and stratum (fasted vs fed) specific probability of a patient experiencing a DLT. […]

phospho-FGFR4 = test: Preclinical in vivo phospho-FGFR4 inhibition; conditions: equivalent of 52.1 nM
[2] = tested on: cell-line derived HCC xenografts and patient-derived HCC xenografts; conditions: dose-dependent manner; cited from earlier work
[3] = tested on: patients with HCC or other solid malignancies
Experimental: FGF401 was administered per oral under fasted condition or with low-fat meal on a continuous once daily (qd) regimen for both FGF401 single agent and in combination with spartalizumab. A 300-mg intravenous infusion of spartalizumab was administered once every three weeks (q3w) and 1 treatment cycle was defined as 21 days. The study treatment was administered until the patient experienced unacceptable toxicity, progressive disease and/or the treatment was discontinued at investigator’s discretion or patient’s withdrawal of consent. Figure 1 summarizes the study design and visit flow.
The secondary endpoints characterizing safety, efficacy, pharmacokinetics (PK), immunogenicity, and food effect properties of the FGF401 and the combination were based on the assessments on their respectively defined population sets. Adverse events (AEs) that emerged during treatment were monitored throughout the study until 30 days after discontinuation of the single agent and 150 days after discontinuation of the combination. Adverse events were coded using the Medical Dictionary for Regulatory Activities (MedDRA) and assessed as per Common Terminology Criteria for Adverse Events (CTCAE) version 4.03. The clinical laboratory assessments were collected no later than 30 days after the last date of study treatment administration. The grades were classified as low/normal/high when not defined by CTCAE v4.03. Other assessments of vital signs, physical examinations, and electrocardiogram (ECG) parameters were also performed.
Safety analyses conducted in the safety set constituted summaries for AEs occurring during on-treatment period with number and percentage of patients having at least 1 AE. Summaries presented overview of AEs and deaths (number and percentage of patients who died with any AE, SAE, dose reductions/interruptions, AE leading to discontinuation), SAEs, AEs related to study treatment, AEs leading to treatment discontinuation, dose interruption/adjustment or fatal outcome. Additionally, in combination part, summaries were produced using all treatment-related AEs starting or worsening during the on-treatment or extended safety follow-up periods (within 150 days after the date of last administration of study treatment).

[4] = single agent, All patients N = 160

COCCNc1cc(NC(=O)N2CCCc3cc(CN4CCN(C)CC4=O)c(C=O)nc32)ncc1C#N [FGF401, roblitinib]
DLT: increase in blood bilirubin ([1]; human, in vivo, 21 days): 2 n | DLT: increase in transaminases ([1]; human, in vivo, 21 days): 4 n | MTD ([1]; single agent, 50 to 150 mg): not reached | IC90 equivalent in human plasma (phospho-FGFR4): ~ 23 ng/mL | tumor response in xenografts [2]: robustly induces regression/stasis | patients who died on treatment because of existing cancer ([3]; 17 patients of 160): 10.6% | discontinued treatment because of progressive disease ([3]; 130 of 160 patients): 81% | patients who died on treatment ([3]; Twenty patients of 160): 12.5% | patients who died on treatment because of other reasons ([3]; gastric bleeding, multiple organ dysfunction syndrome, unknown cause): 3 patients | AEs leading to FGF401 discontinuation, All grades ([3]; human, in vivo): 18 (11.3) n (%) | AEs leading to FGF401 discontinuation, Grade 3 or 4 ([3]; human, in vivo): 13 (8.1) n (%) | AEs leading to FGF401 discontinuation, Treatment related, All grades ([3]; human, in vivo): 12 (7.5) n (%) | AEs leading to FGF401 discontinuation, Treatment related, Grade 3 or 4 ([3]; human, in vivo): 8 (5.0) n (%) | AEs leading to FGF401 dose adjustment/interruption, All grades ([3]; human, in vivo): 80 (50.0) n (%) | AEs leading to FGF401 dose adjustment/interruption, Grade 3 or 4 ([3]; human, in vivo): 58 (36.3) n (%) | AEs leading to FGF401 dose adjustment/interruption, Treatment related, All grades ([3]; human, in vivo): 47 (29.4) n (%) | AEs leading to FGF401 dose adjustment/interruption, Treatment related, Grade 3 or 4 ([3]; human, in vivo): 34 (21.3) n (%) | ALT increased leading to FGF401 discontinuation ([3]; human, in vivo): 3.8% | AST increased leading to FGF401 discontinuation ([3]; human, in vivo): 1.9% | Constipation, Grade 3/4 ([3]; human, in vivo): 0 n (%) | Decreased appetite, Grade 3/4 ([3]; human, in vivo): 0 n (%) | Edema peripheral, Grade 3/4 ([3]; human, in vivo): 0 n (%) | Grade 3 or 4 AEs suspected to be related to study treatment ([3]; human, in vivo): 31.9% | Grade 3 or 4 related ALT elevated ([3]; human, in vivo): 15.0% | Grade 3 or 4 related AST increased ([3]; human, in vivo): 18.8% | Grade 3 or 4 related diarrhea ([3]; human, in vivo): 5.0% | Nausea, Grade 3/4 ([3]; human, in vivo): 0 n (%) | Primary reason for end of treatment: Adverse event ([3]; human, in vivo): 18 (11.3) n (%) | Pyrexia, Grade 3/4 ([3]; human, in vivo): 0 n (%) | SAEs, Treatment related, Grade 3 or 4 ([3]; human, in vivo): 7 (4.4) n (%) | blood bilirubin increased leading to FGF401 discontinuation ([3]; human, in vivo): 2.5% | dose interruption due to AEs ([3]; human, in vivo): 52.5% | dose reduction due to AEs ([3]; human, in vivo): 18.1% | patients with a grade 3 or 4 AE ([3]; human, in vivo): 72.5% | patients with diarrhea ([3]; human, in vivo): 73.8% | patients with dose interruption ([3]; human, in vivo): 60.6% | patients with dose reduction ([3]; human, in vivo): 21.3% | patients with increased ALT ([3]; human, in vivo): 43.8% | patients with increased AST ([3]; human, in vivo): 47.5% | Primary reason for end of treatment: Death ([3]; single agent N=160): 2 (1.3) n (%) | Primary reason for end of treatment: Progressive disease ([3]; single agent N=160): 130 (81.3) n (%) | AEs, All grades [3, 4]: 160 (100) n (%) | AEs, Grade 3 or 4 [3, 4]: 116 (72.5) n (%) | AEs, Treatment related, All grades [3, 4]: 148 (92.5) n (%) | AEs, Treatment related, Grade 3 or 4 [3, 4]: 51 (31.9) n (%) | Fatal SAEs, All grades [3, 4]: 3 (1.9) n (%) | Fatal SAEs, Grade 3 or 4 [3, 4]: 3 (1.9) n (%) | Fatal SAEs, Treatment related, All grades [3, 4]: 0 n (%) | Fatal SAEs, Treatment related, Grade 3 or 4 [3, 4]: 0 n (%) | SAEs, All grades [3, 4]: 70 (43.8) n (%) | SAEs, Grade 3 or 4 [3, 4]: 55 (34.4) n (%) | SAEs, Treatment related, All grades [3, 4]: 8 (5.0) n (%)
